Consider 61 compounds from the pKa sets of Baltruschat and Czodrowski (2020).

As for `Cc1nc2c(CCc3ccccc3)cccn2c1N`, the pKa was determined as 7.3.

With `Cc1nc(C)nc(N2C[C@@H](C)N(c3ccnc([C@@H](C)O)n3)[C@@H](C)C2)n1`, the pKa came out at 4.8. To `Cc1ccc(-c2nc3ccc(C)cn3c2CC(=O)N(C)C)cc1` belongs 6.02; to `COc1cc(NS(C)(=O)=O)ccc1Nc1c2ccccc2nc2c(OC)cccc12`, 7.39. To `Cc1cc(Cl)cc(Cl)c1N=C1NCCN1` belongs 9.03. Turning to `CS(=O)(=O)Nc1ccc(Nc2c3ccccc3nc3ccc(C(N)=O)cc23)cc1`, the pKa came out at 6.34. On to `c1cnon1`, for which the pKa is -5.

The compound `O=C(NCC1CCCCN1)c1cc(OCC(F)(F)F)ccc1OCC(F)(F)F` (stereo unspecified) gave a pKa of 9.3.

Take `CCCCCS(=O)(=O)NCCCc1ccc(OCCOC)cc1Oc1ncc(C(F)(F)F)cc1Cl`: the pKa came out at 17.5. `CCCCCCS(=O)(=O)Nc1ccc(Nc2c3ccccc3nc3ccccc23)cc1` yielded a pKa of 7.17. `COc1cc(NS(C)(=O)=O)ccc1Nc1c2ccccc2nc2ccc(I)cc12`: the pKa came out at 6.6.

Take `CC(NCCC(c1ccccc1)c1ccccc1)c1ccccc1` (stereo unspecified): the pKa worked out at 9.04. To `OB(O)c1ccccc1` belongs 8.8; to `CCS(=O)(=O)Nc1ccc(Nc2c3ccccc3nc3ccccc23)cc1`, 7.19; to `CNC(=O)Nc1ccc(Nc2c3ccccc3nc3ccccc23)cc1`, 7.77. Consider `COc1cc(NS(C)(=O)=O)ccc1Nc1c2ccccc2nc2cc(C(C)C)ccc12`, for which the pKa worked out at 7.66. `NC(=O)Cc1ccc(Nc2c3ccccc3nc3ccccc23)cc1` came in with a pKa of 7.43. With `COc1cc(NS(C)(=O)=O)ccc1Nc1c2ccccc2nc2cc(F)ccc12` the figure was 7.05; with `CC(=O)Nc1ccc(Nc2c3ccccc3nc3ccccc23)cc1`, 7.51; with `CCCn1c(=O)c2nc(-c3ccc(S(=O)(=O)NCCN(C)C)cc3)[nH]c2n(CCC)c1=O`, 8. In turn, `CCc1ccccc1Nc1c2ccccc2nc2ccccc12` showed a pKa of 7.68. In turn, `Cc1ccc2nc3ccccc3c(Nc3ccc(NS(C)(=O)=O)cc3)c2c1` gave a pKa of 7.23.

`COc1ccccc1Nc1c2ccccc2nc2ccccc12` displayed a pKa of 7.74.

With `COc1cccc(S(=O)(=O)Nc2cccn(CC(=O)NCc3ccc(C(=N)N)cc3OC)c2=O)c1`, the pKa amounted to 10.

Take `Cc1ccccc1N=C1NCCN1`: the pKa came out at 10.2. With `Cc1cc(Cl)cc(C)c1N=C1NCCN1` the figure was 10.2; with `COc1cc(NS(C)(=O)=O)ccc1Nc1c2ccccc2nc2ccc(N)cc12`, 7.37; with `O=C(O)CN(CCN(CC(=O)O)CC(=O)O)CCN(CC(=O)O)C(COCc1ccccc1)C(=O)O` (stereo unspecified), 2.07. The compound `COc1cccc(S(=O)(=O)Nc2cccn(CC(=O)NCc3nc(C(=N)N)cs3)c2=O)c1` displayed a pKa of 8.8.

`CN(C)CCCCc1ccc(C2(C)COC2)cc1` showed a pKa of 9.9. The compound `Nc1ncnc2c1ncn2[C@@H]1O[C@H](COS(=O)(=O)NC(=O)c2ccccc2)[C@@H](O)[C@H]1O` came in with a pKa of 2.8. For `CN(C)C(=O)Oc1cccc([N+](C)(C)C)c1`, the pKa stood at 19.1. Consider `CS(=O)(=O)Nc1ccc(Nc2c3ccccc3nc3cc(N)ccc23)cc1`, for which the pKa is 9.8. With `Cc1cc(Cl)ccc1N=C1NCCN1` the figure was 9.99; with `Clc1cccc(N=C2NCCN2)c1Cl`, 8.55; with `O=C(Nc1ccccc1)Nc1ccc(Nc2c3ccccc3nc3ccccc23)cc1`, 7.67.

In the case of `CCCOC(=O)c1ccc(OS(N)(=O)=O)cc1`, the pKa came to 8.03. With `Fc1cccc(Cl)c1N=C1NCCN1`, the pKa is 8.01. `Cc1cnc(NCCc2ccccc2)c(=O)n1CC(=O)NCc1ccc(C(=N)NO)s1` yielded a pKa of 4.1. Compound `O=c1[nH]c(=O)n([C@H]2C[C@H](O)[C@@H](CO)O2)cc1I` registered a pKa of 8.2. With `Cc1nc2c(/C=C/c3ccccc3)cccn2c1C`, the pKa is 7.2. `Cc1c(N(C)C)c(=O)n(-c2ccccc2)n1C` registered a pKa of 4.48. As to `CNc1ccnc(N2CCc3ccccc3C2)c1`, the pKa worked out at 8.9.

Take `COc1cc(NS(C)(=O)=O)ccc1Nc1c2ccccc2nc2c(F)cccc12`: the pKa is 6.33. In turn, `CN(C)CCNC(=O)c1cccc2ccc(-c3ccccc3)nc12` came in with a pKa of 2.75. The compound `O=C(c1ccccc1)c1ccc2n1CCC2C(=O)O` (stereo unspecified) returned a pKa of 3.5. With `CS(=O)(=O)Nc1cccc(Nc2c3ccccc3nc3ccccc23)c1` the figure was 6.85; with `CN(C)C(=O)C1C2c3ccccc3C(c3ccccc32)C1C(=O)N(C)C` (stereo unspecified), -1.34.

Compound `CNC(=O)c1cccc2c(Nc3ccc(NS(C)(=O)=O)cc3OC)c3cccc(C)c3nc12` yielded a pKa of 6.4. For `C/C(=N\N=C(/S)N/N=C(\S)Nc1ccccc1Cl)c1ccccn1`, the pKa amounted to 7.24. For the compound `NC(=O)CF`, the pKa amounted to 22.3. The compound `c1c[nH]cn1` showed a pKa of 6.99. To `NC1OC(CO)C(O)C(O)C1O` (stereo unspecified) belongs 5.6; to `O=C(C1CCN(c2ccncn2)CC1)N1CCN(S(=O)(=O)c2ccc(Br)cc2)CC1`, 6.1.

For `CCCCOC(=O)c1ccc(OS(N)(=O)=O)cc1`, the pKa worked out at 8.07. In turn, `Cc1cnc(NCCc2ccccc2)c(=O)n1CC(=O)NCc1cnc(N)cn1` gave a pKa of 2.7. For `CN1CCN2c3ccccc3Cc3ccccc3C2C1` (stereo unspecified), the pKa is 7.1. Take `CNc1ncnc2c1ncn2Cc1ccccc1F`: the pKa is 3.88. `CCCNC(=O)CN(CCN(CCN(CC(=O)O)CC(=O)O)CC(=O)O)CC(=O)O` gave a pKa of 1.8. Take `Cn1ccnc1Br`: the pKa was 3.82. Turning to `CSc1nccn1C`, the pKa was 5.95.

The term pKa denotes the pH at which an ionisable group is half protonated. A high value points to a group that holds its proton tightly.
